Measured values reported in the NIST ThermoML archive (doi:10.1021/je4007844).

Settings: Liquid; for viscosity: Concentric cylinders viscometry

CCCCCC[n+]1ccn(C)c1.O=S(=O)([N-]S(=O)(=O)C(F)(F)F)C(F)(F)F
101.33 kPa
Settings | viscosity [mPa·s]
293.15 K | 90.06
303.15 K | 56.25
313.15 K | 37.44
323.15 K | 26.25
333.15 K | 19.21
343.15 K | 14.55
353.15 K | 11.36
363.15 K | 9.091
373.15 K | 7.434

Settings | mass density [kg/m3]
293.15 K, 101.33 kPa, Vibrating tube method | 1376.3
303.15 K, 101.33 kPa, Vibrating tube method | 1367.1
312.6 K, 100 kPa, Bellows volumetry | 1358.5
312.6 K, 10000 kPa, Bellows volumetry | 1365.7
312.6 K, 20000 kPa, Bellows volumetry | 1373
312.6 K, 30000 kPa, Bellows volumetry | 1380.1
312.6 K, 40000 kPa, Bellows volumetry | 1386.7
312.6 K, 50000 kPa, Bellows volumetry | 1392.8
312.6 K, 60000 kPa, Bellows volumetry | 1399
312.6 K, 70000 kPa, Bellows volumetry | 1404.6
312.6 K, 80000 kPa, Bellows volumetry | 1410.2
312.6 K, 90000 kPa, Bellows volumetry | 1415.5
312.6 K, 100000 kPa, Bellows volumetry | 1420.7
312.6 K, 110000 kPa, Bellows volumetry | 1425.8
312.6 K, 120000 kPa, Bellows volumetry | 1430.8
312.6 K, 130000 kPa, Bellows volumetry | 1435.5
312.6 K, 140000 kPa, Bellows volumetry | 1440.1
312.6 K, 150000 kPa, Bellows volumetry | 1444.5
312.6 K, 160000 kPa, Bellows volumetry | 1448.9
312.6 K, 170000 kPa, Bellows volumetry | 1453
312.6 K, 180000 kPa, Bellows volumetry | 1457.6
312.6 K, 190000 kPa, Bellows volumetry | 1461.6
312.6 K, 200000 kPa, Bellows volumetry | 1465.9
313.15 K, 101.33 kPa, Vibrating tube method | 1358
323.15 K, 101.33 kPa, Vibrating tube method | 1348.9
332.4 K, 100 kPa, Bellows volumetry | 1340
332.4 K, 10000 kPa, Bellows volumetry | 1348.1
332.4 K, 20000 kPa, Bellows volumetry | 1355.9
332.4 K, 30000 kPa, Bellows volumetry | 1363.3
332.4 K, 40000 kPa, Bellows volumetry | 1370.4
332.4 K, 50000 kPa, Bellows volumetry | 1377
332.4 K, 60000 kPa, Bellows volumetry | 1383.2
332.4 K, 70000 kPa, Bellows volumetry | 1389.3
332.4 K, 80000 kPa, Bellows volumetry | 1395.1
332.4 K, 90000 kPa, Bellows volumetry | 1400.5
332.4 K, 100000 kPa, Bellows volumetry | 1406.3
332.4 K, 110000 kPa, Bellows volumetry | 1411.5
332.4 K, 120000 kPa, Bellows volumetry | 1416.5
332.4 K, 130000 kPa, Bellows volumetry | 1421.3
332.4 K, 140000 kPa, Bellows volumetry | 1426.1
332.4 K, 150000 kPa, Bellows volumetry | 1430.9
332.4 K, 160000 kPa, Bellows volumetry | 1435.4
332.4 K, 170000 kPa, Bellows volumetry | 1439.7
332.4 K, 180000 kPa, Bellows volumetry | 1444
332.4 K, 190000 kPa, Bellows volumetry | 1448.4
332.4 K, 200000 kPa, Bellows volumetry | 1452.6
333.15 K, 101.33 kPa, Vibrating tube method | 1339.9
343.15 K, 101.33 kPa, Vibrating tube method | 1331
352.3 K, 100 kPa, Bellows volumetry | 1322.2
352.3 K, 10000 kPa, Bellows volumetry | 1330.9
352.3 K, 20000 kPa, Bellows volumetry | 1339.3
352.3 K, 30000 kPa, Bellows volumetry | 1347.3
352.3 K, 40000 kPa, Bellows volumetry | 1354.5
352.3 K, 50000 kPa, Bellows volumetry | 1361.5
352.3 K, 60000 kPa, Bellows volumetry | 1368.2
352.3 K, 70000 kPa, Bellows volumetry | 1374.6
352.3 K, 80000 kPa, Bellows volumetry | 1380.6
352.3 K, 90000 kPa, Bellows volumetry | 1386.5
352.3 K, 100000 kPa, Bellows volumetry | 1392
352.3 K, 110000 kPa, Bellows volumetry | 1397.5
352.3 K, 120000 kPa, Bellows volumetry | 1402.7
352.3 K, 130000 kPa, Bellows volumetry | 1408
352.3 K, 140000 kPa, Bellows volumetry | 1412.8
352.3 K, 150000 kPa, Bellows volumetry | 1417.6
352.3 K, 160000 kPa, Bellows volumetry | 1422.1
352.3 K, 170000 kPa, Bellows volumetry | 1426.8
352.3 K, 180000 kPa, Bellows volumetry | 1431.4
352.3 K, 190000 kPa, Bellows volumetry | 1435.5
352.3 K, 200000 kPa, Bellows volumetry | 1439.9
353.15 K, 101.33 kPa, Vibrating tube method | 1322.2
363.15 K, 101.33 kPa, Vibrating tube method | 1313.3
372.5 K, 100 kPa, Bellows volumetry | 1304.4
372.5 K, 10000 kPa, Bellows volumetry | 1313.7
372.5 K, 20000 kPa, Bellows volumetry | 1322.6
372.5 K, 30000 kPa, Bellows volumetry | 1330.9
372.5 K, 40000 kPa, Bellows volumetry | 1338.6
372.5 K, 50000 kPa, Bellows volumetry | 1346
372.5 K, 60000 kPa, Bellows volumetry | 1353
372.5 K, 70000 kPa, Bellows volumetry | 1359.6
372.5 K, 80000 kPa, Bellows volumetry | 1366
372.5 K, 90000 kPa, Bellows volumetry | 1372.1
372.5 K, 100000 kPa, Bellows volumetry | 1378
372.5 K, 110000 kPa, Bellows volumetry | 1383.7
372.5 K, 120000 kPa, Bellows volumetry | 1389.1
372.5 K, 130000 kPa, Bellows volumetry | 1394.3
372.5 K, 140000 kPa, Bellows volumetry | 1399.4
372.5 K, 150000 kPa, Bellows volumetry | 1404.4
372.5 K, 160000 kPa, Bellows volumetry | 1409.3
372.5 K, 170000 kPa, Bellows volumetry | 1414
372.5 K, 180000 kPa, Bellows volumetry | 1418.5
372.5 K, 190000 kPa, Bellows volumetry | 1423.1
372.5 K, 200000 kPa, Bellows volumetry | 1427.4
373.15 K, 101.33 kPa, Vibrating tube method | 1304.7
392.7 K, 100 kPa, Bellows volumetry | 1286.8
392.7 K, 10000 kPa, Bellows volumetry | 1296.8
392.7 K, 20000 kPa, Bellows volumetry | 1306.3
392.7 K, 30000 kPa, Bellows volumetry | 1315.1
392.7 K, 40000 kPa, Bellows volumetry | 1323.4
392.7 K, 50000 kPa, Bellows volumetry | 1331.1
392.7 K, 60000 kPa, Bellows volumetry | 1338.5
392.7 K, 70000 kPa, Bellows volumetry | 1345.4
392.7 K, 80000 kPa, Bellows volumetry | 1352.1
392.7 K, 90000 kPa, Bellows volumetry | 1358.3
392.7 K, 100000 kPa, Bellows volumetry | 1364.5
392.7 K, 110000 kPa, Bellows volumetry | 1370.3
392.7 K, 120000 kPa, Bellows volumetry | 1376
392.7 K, 130000 kPa, Bellows volumetry | 1381.5
392.7 K, 140000 kPa, Bellows volumetry | 1386.8
392.7 K, 150000 kPa, Bellows volumetry | 1391.9
392.7 K, 160000 kPa, Bellows volumetry | 1397
392.7 K, 170000 kPa, Bellows volumetry | 1401.8
392.7 K, 180000 kPa, Bellows volumetry | 1406.5
392.7 K, 190000 kPa, Bellows volumetry | 1411.1
392.7 K, 200000 kPa, Bellows volumetry | 1415.7
412.7 K, 100 kPa, Bellows volumetry | 1269.8
412.7 K, 10000 kPa, Bellows volumetry | 1280.4
412.7 K, 20000 kPa, Bellows volumetry | 1290.4
412.7 K, 30000 kPa, Bellows volumetry | 1299.8
412.7 K, 40000 kPa, Bellows volumetry | 1308.4
412.7 K, 50000 kPa, Bellows volumetry | 1316.5
412.7 K, 60000 kPa, Bellows volumetry | 1324.3
412.7 K, 70000 kPa, Bellows volumetry | 1331.5
412.7 K, 80000 kPa, Bellows volumetry | 1338.5
412.7 K, 90000 kPa, Bellows volumetry | 1345
412.7 K, 100000 kPa, Bellows volumetry | 1351.3
412.7 K, 110000 kPa, Bellows volumetry | 1357.5
412.7 K, 120000 kPa, Bellows volumetry | 1363.2
412.7 K, 130000 kPa, Bellows volumetry | 1368.9
412.7 K, 140000 kPa, Bellows volumetry | 1374.3
412.7 K, 150000 kPa, Bellows volumetry | 1379.8
412.7 K, 160000 kPa, Bellows volumetry | 1384.9
412.7 K, 170000 kPa, Bellows volumetry | 1389.9
412.7 K, 180000 kPa, Bellows volumetry | 1394.7
412.7 K, 190000 kPa, Bellows volumetry | 1399.4
412.7 K, 200000 kPa, Bellows volumetry | 1404
432.6 K, 100 kPa, Bellows volumetry | 1252.4
432.6 K, 10000 kPa, Bellows volumetry | 1263.7
432.6 K, 20000 kPa, Bellows volumetry | 1274.3
432.6 K, 30000 kPa, Bellows volumetry | 1284.2
432.6 K, 40000 kPa, Bellows volumetry | 1293.3
432.6 K, 50000 kPa, Bellows volumetry | 1301.7
432.6 K, 60000 kPa, Bellows volumetry | 1309.7
432.6 K, 70000 kPa, Bellows volumetry | 1317.3
432.6 K, 80000 kPa, Bellows volumetry | 1324.5
432.6 K, 90000 kPa, Bellows volumetry | 1331.2
432.6 K, 100000 kPa, Bellows volumetry | 1337.8
432.6 K, 110000 kPa, Bellows volumetry | 1344.1
432.6 K, 120000 kPa, Bellows volumetry | 1350.3
432.6 K, 130000 kPa, Bellows volumetry | 1356.1
432.6 K, 140000 kPa, Bellows volumetry | 1361.9
432.6 K, 150000 kPa, Bellows volumetry | 1367.3
432.6 K, 160000 kPa, Bellows volumetry | 1372.4
432.6 K, 170000 kPa, Bellows volumetry | 1377.5
432.6 K, 180000 kPa, Bellows volumetry | 1382.5
432.6 K, 190000 kPa, Bellows volumetry | 1387.4
432.6 K, 200000 kPa, Bellows volumetry | 1392.2
452.3 K, 100 kPa, Bellows volumetry | 1235.6
452.3 K, 10000 kPa, Bellows volumetry | 1247.6
452.3 K, 20000 kPa, Bellows volumetry | 1258.8
452.3 K, 30000 kPa, Bellows volumetry | 1269.2
452.3 K, 40000 kPa, Bellows volumetry | 1278.8
452.3 K, 50000 kPa, Bellows volumetry | 1287.6
452.3 K, 60000 kPa, Bellows volumetry | 1295.9
452.3 K, 70000 kPa, Bellows volumetry | 1303.9
452.3 K, 80000 kPa, Bellows volumetry | 1311.3
452.3 K, 90000 kPa, Bellows volumetry | 1318.3
452.3 K, 100000 kPa, Bellows volumetry | 1325.1
452.3 K, 110000 kPa, Bellows volumetry | 1331.8
452.3 K, 120000 kPa, Bellows volumetry | 1338
452.3 K, 130000 kPa, Bellows volumetry | 1344.1
452.3 K, 140000 kPa, Bellows volumetry | 1349.9
452.3 K, 150000 kPa, Bellows volumetry | 1355.5
452.3 K, 160000 kPa, Bellows volumetry | 1360.8
452.3 K, 170000 kPa, Bellows volumetry | 1366.2
452.3 K, 180000 kPa, Bellows volumetry | 1371.3
452.3 K, 190000 kPa, Bellows volumetry | 1376.4
452.3 K, 200000 kPa, Bellows volumetry | 1381.2
